Experimental data taken from patent US8604040B2 (priority 2010, dated 2013).
Like-named read-outs stand apart in the source and are kept apart here. Marks after values point to notes of the source that are not given here.

Columns and labels:
[1] = log P by HPLC (EEC Directive 79/831 Annex V.A8); type: physicochemical
Phytophthora infestans = type: in vivo; conditions: protective, young tomato plants, active ingredient concentration 500 ppm, evaluation 7 days after inoculation
Plasmopara viticola = test: Plasmopara test (grapevine) / protective; type: in vivo; conditions: young grapevine plants, active ingredient concentration 100 ppm, evaluation 6 days after inoculation
Experimental: Plasmopara Test (Grapevine)/Protective
Solvent: 24.5 parts by weight of acetone
• 24.5 parts by weight of dimethylacetamide Emulsifier: 1 part by weight of alkylaryl polyglycol ether
To prepare an appropriate active ingredient preparation, 1 part by weight of active ingredient is mixed with the stated amounts of solvent and emulsifier, and the concentrate is diluted with water to the desired concentration.
To test for protective efficacy, young plants are sprayed with the active ingredient preparation at the stated application rate. After the spray coating has dried on, the plants are inoculated with an aqueous spore suspension of Plasmopara viticola and then remain in an incubation cabin at approx. 20° C. and 100% relative atmospheric humidity for 1 day. Subsequently, the plants are placed in a greenhouse at approx. 21° C. and approx. 90% air humidity for 4 days. The plants are then moistened and placed into an incubation cabin for 1 day.
Evaluation follows 6 days after the inoculation. 0% means an efficacy which corresponds to that of the control, whereas an efficacy of 100% means that no infection is observed.

[2] = [b] LC-MS, acidic range, pH 2.7, 0.1% aqueous formic acid and acetonitrile
[3] = [c] LC-MS, neutral range, pH 7.8, 0.001 molar aqueous ammonium hydrogencarbonate and acetonitrile
[4] = HPLC, pH 2.7, given in the preparation examples, read-out: logP (pH2.7)
[5] = [a] HPLC, acidic range, pH 2.3, 0.1% aqueous phosphoric acid and acetonitrile

Structure (SMILES)	log P [1, 2]	log P [1, 3]	efficacy (Phytophthora infestans) [%]	log P [1, 5]	also measured
Cc1cc(C(F)(F)F)nn1CC(=O)N1CCN(c2cccc(C(=O)N(C)Cc3ccccc3Br)n2)CC1 [Example 3]	3.44	3.46	88	–	–
Cc1cc(C(F)(F)F)nn1CC(=O)N1CCN(c2cccc(C(=O)OC3C=CCCC3)n2)CC1 (stereo not drawn) [Example 68]	3.67	3.7	94	–	–
Cc1cc(C(F)(F)F)nn1CC(=O)N1CCN(c2cccc(C(=O)OC3CCCCC3)n2)CC1 [Example 69]	3.96	–	71	–	–
Cc1cc(C(F)(F)F)nn1CC(=O)N1CCN(c2cccc(C(=O)OC3CCCc4ccccc43)n2)CC1 (stereo not drawn) [Example 70]	4.19	4.2	97	–	–
C=CCCCCOC(=O)c1cccc(N2CCN(C(=O)Cn3nc(C(F)(F)F)cc3C)CC2)n1 [Example 71]	–	3.95	76	–	–
Cc1cc(C(F)(F)F)nn1CC(=O)N1CCN(c2cccc(C(=O)OCc3ccccc3F)n2)CC1 [Example 73]	3.58	3.6	71	–	–
Cc1cc(C(F)(F)F)nn1CC(=O)N1CCN(c2cccc(C(=O)Oc3cccc4ccccc34)n2)CC1 [Example 75]	3.99	4	71	–	–
O=C(OC1CCCc2ccccc21)c1cccc(N2CCN(C(=O)Cn3nc(C(F)F)cc3C(F)F)CC2)n1 (stereo not drawn) [Example 117, 1,2,3,4-Tetrahydronaphthalen-1-yl 6-(4-{[3,5-bis(difluoromethyl)-1H-pyrazol-1-yl]-acetyl}piperazin-1-yl)pyridine-2-carboxylate]	–	–	93	–	chromatographic logP ([1]; HPLC (LC-MS), [c] LC-MS, neutral range, pH 7.8, 0.001 molar aqueous ammonium hydrogencarbonate and acetonitrile, read-out: log P): 4.07; chromatographic logP [1, 4]: 4.02; chromatographic logP ([1]; [a] HPLC, acidic range, pH 2.3, 0.1% aqueous phosphoric acid and acetonitrile, read-out: log P): 4.02; efficacy (Plasmopara viticola): 93%
Cc1cc(C(F)(F)F)nn1CC(=O)N1CCN(c2cccc(C(=O)OCc3c(F)cc(F)cc3F)n2)CC1 [Example 118]	3.68	3.71	93	–	–
O=C(Sc1cccc2ccccc12)c1cccc(N2CCN(C(=O)Cn3nc(C(F)F)cc3C(F)F)CC2)n1 [Example 120]	–	4.28	93	4.25	–
O=C(Sc1cccs1)c1cccc(C2CCN(C(=O)Cn3nc(C(F)F)cc3C(F)F)CC2)n1 [Example 123]	–	3.77	93	3.76	–
O=C(OCc1ccccc1F)c1cccc(N2CCN(C(=O)Cn3nc(C(F)F)cc3C(F)F)CC2)n1 [Example 137]	–	3.49	93	3.47	–
O=C(OCc1c(F)cccc1F)c1cccc(N2CCN(C(=O)Cn3nc(C(F)F)cc3C(F)F)CC2)n1 [Example 138]	–	3.43^[a]; 3.43^[c]	93	3.43^[a]; 3.43^[c]	–
O=C(OC1CCCCC1)c1cccc(N2CCN(C(=O)Cn3nc(C(F)F)cc3C(F)F)CC2)n1 [Example 140]	–	3.86	93	3.83	efficacy (Plasmopara viticola): 71%
O=C(Oc1cccc2ccccc12)c1cccc(N2CCN(C(=O)Cn3nc(C(F)F)cc3C(F)F)CC2)n1 [Example 141]	–	3.88^[c]	71	–	–
O=C(OC1C=CCCC1)c1cccc(N2CCN(C(=O)Cn3nc(C(F)F)cc3C(F)F)CC2)n1 (stereo not drawn) [Example 142]	–	3.6	83	3.56	–
CN(C(=O)c1cccc(N2CCN(C(=O)Cn3nc(C(F)F)cc3C(F)F)CC2)n1)C1CCCc2ccccc21 (stereo not drawn) [Example 143]	–	3.45	71	3.42	–
CN(Cc1ccccc1Cl)C(=O)c1cccc(N2CCN(C(=O)Cn3nc(C(F)F)cc3C(F)F)CC2)n1 [Example 148]	–	3.25	–	3.22	–
Cc1cc(C(F)(F)F)nn1CC(=O)N1CCN(c2cccc(C(=O)SCc3c(F)cccc3F)n2)CC1 [Example 149]	4.11	4.29	–	–	–
CC(C)(C)OC(=O)N1CCC(O)(c2cccc(Br)n2)CC1 [tert-Butyl 4-(6-bromopyridin-2-yl)-4-hydroxypiperidine-1-carboxylate]	–	–	–	–	chromatographic logP [1, 4]: 3.05
CC(C)(C)OC(=O)N1CCN(c2cccc(Br)n2)CC1 [tert-Butyl 4-(6-bromopyridin-2-yl)piperazine-1-carboxylate]	–	–	–	–	chromatographic logP [1, 4]: 4.08
CCOC(=O)c1cccc(N2CCN(C(=O)OC(C)(C)C)CC2)n1 [tert-Butyl 4-[6-(ethoxycarbonyl)pyridin-2-yl]piperazine-1-carboxylate]	–	–	–	–	chromatographic logP [1, 4]: 3.32
CC(C)(C)OC(=O)N1CC=C(c2cccc(Br)n2)CC1 [tert-Butyl 6-bromo-3′,6′-dihydro-2,4′-bipyridine-1′(2′H)-carboxylate]	–	–	–	–	chromatographic logP [1, 4]: 4.14
CN(C(=O)c1cccc(C2CCN(C(=O)OC(C)(C)C)CC2)n1)C1CCCc2ccccc21 (stereo not drawn) [tert-butyl 4-{6-[methyl(1,2,3,4-tetrahydronaphthalen-1-yl)carbamoyl]pyridin-2-yl}piperidine-1-carboxylate]	–	–	–	–	chromatographic logP [1, 4]: 5.09
